Experimental data taken from US10125168B2, “Synthetic peptide for adjusting balance between presence of type 1 TNF receptor and type 2 TNF receptor and use thereof” (TOAGOSEI CO., LTD., priority 2012, dated 2018).

Columns and labels:
TNF-R1 [1] = assay: Immunofluorescence / flow cytometry of TNF-R1 presence in human SK-N-SH cells supplied with peptide; format: cell-based; conditions: human cell line SK-N-SH, retinoic acid induction, peptide 5 μM, two days; fluorescence intensity relative to control group = 1 (FIG. 2)
Method: The activities of the respective peptides synthesized in Example 1 above were tested with cultured cells of a human neuroblastoma cell line (SK-N-SH). The control group was supplied with no peptides. The test details are described below.
Firstly, each peptide synthesized in Example 1 above was dissolved in DMSO to prepare a stock solution having a peptide concentration of 4 mM.
The SK-N-SH cell line was then seeded in a 4 mL fraction in a culture dish of 6 cm diameter at a density of 1.5×10^5 cells/mL and incubated overnight in a general DMEM culture medium (with 10% FBS (a Hyclone product, KSD), 2 mM L-glutamine, 50 unit/mL penicillin, and 50 μg/mL streptomycin) at 37° C. in a CO2 incubator at 5% CO2. Due to a low cell density, incubation was carried on for one more days.
After incubated over two nights, the culture medium was replaced with a fresh DMEM culture medium (with 2% FBS, 20 μM retinoic acid, 2 mM L-glutamine, 50 unit/mL penicillin, and 50 μg/mL streptomycin). Incubation was carried on for five days under the same conditions to effect retinoic acid induction.
Subsequently, the culture medium was replaced with a DMEM culture medium containing a peptide (TNF-R2 upregulating peptide or TNF-R2 downregulating peptide) in an amount equivalent to 5 μM, in addition to 2% FBS, 20 μM retinoic acid, 2 mM L-glutamine, 50 unit/mL penicillin and 50 μg/mL streptomycin (also containing 5 μL of DMSO at this point). Incubation was carried on under the same conditions for two days.
The control group (group supplied with no peptide) was incubated for two days in a DMEM culture medium (with 2% FBS, 20 μM retinoic acid, 20 μM retinoic acid, 2 mM L-glutamine, 50 unit/mL penicillin, and 50 μg/mL streptomycin) supplied only with the aforementioned amount of DMSO, without any added peptide.
(§1) After completion of the incubation, cultured cells in each test group were collected and divided into certain test tubes in fractions having the same number of cells. By the immunofluorescence technique described below, the change in the balance between the presence of TNF-R1 and TNF-R2 was then assessed in each test group (group supplied with TNF-R2 upregulating peptide, group supplied with TNF-R2 downregulating peptide).
More specifically, in each test group, for the TNF-R1 measurement, an anti-TNF-R1 mouse polyclonal antibody (a Santa Cruz Biotechnology Inc. product, SC-52739) was added to the respective test tubes to a final concentration of 2×10^−3 mg/mL and incubation was carried out under ice-cold conditions for a prescribed time period. As a secondary antibody, a goat anti-mouse IgG antibody (an Invitrogen product, A10029) labeled with a fluorescent dye (Alexa® 488) was added to the test tubes to a final concentration of 4×10^−3 mg/mL and incubation was carried out under ice-cold conditions for a prescribed time period.
(§2) In the same manner as Example 2 above, the fluorescence intensities of cells were measured with a flow cytometer. For both TNF-R1 and TNF-R2, the fluorescence intensities are shown as relative values with the fluorescence intensities of TNF-R1 and TNF-R2 in the control group (group supplied with no peptide) being 1, respectively.

TNF-R1 [2] = assay: Immunofluorescence / flow cytometry of TNF-R1 presence in mouse Neuro 2a cells supplied with peptide; format: cell-based; conditions: mouse cell line Neuro 2a, retinoic acid induction, peptide 5 μM, two days; fluorescence intensity relative to control group = 1 (FIG. 1)
Method: The activities of the peptides of Sample 1 and Sample 6 synthesized in Example 1 above were tested with cultured cells of a mouse […], neuroblastoma cell line (Neuro 2a). The control group was supplied with no peptides. The test details are described below.
Firstly, each peptide synthesized in Example 1 above was dissolved in PBS (phosphate buffered saline) to prepare a stock solution having a peptide concentration of 1 mM (with a small amount of dimethyl sulfoxide (DMSO)). […]
as §1, with “peptide). […]” for “peptide).”
as §2, with “The” for “In the same manner as Example 2 above, the”, “cytometer (a Millipore system product, Guava® easyCyte 8HT).” for “cytometer.”

Sequence | presence of TNF-R1 (TNF-R1 [1]) | presence of TNF-R1 (TNF-R1 [2])
MGLSTVPGLLLPLVLRALLVD (listed as Sus scrofa) [Sample 5, TNF-R2 upregulating peptide; pig TNF-R1 signal peptide motif, linear, 21 amino acid residues] | no significant change | 
MAPAALWVALVFELQLWATGHT (listed as Mus musculus) [Sample 7, TNF-R2 downregulating peptide; mouse TNF-R2 signal peptide motif, linear, 22 amino acid residues] | no significant change | 
MGLPTVPGLLLSLVLLALLMG (listed as Mus musculus) [Sample 2, TNF-R2 upregulating peptide; mouse TNF-R1 signal peptide motif, linear, 21 amino acid residues] | no significant change | 
MAPVAVWAALAVGLELWAAAHA (listed as Homo sapiens) [Sample 6, TNF-R2 downregulating peptide; human TNF-R2 signal peptide motif, linear, 22 amino acid residues] | no significant change | no significant change
MGLSTVPDLLLPLVLLELLVG (listed as Homo sapiens) [Sample 1, TNF-R2 upregulating peptide; human TNF-R1 signal peptide motif, linear, 21 amino acid residues] | no significant change | no significant change
